Results on 2 compounds are retold here after US20030125387A1 (priority 2000, published 2003).

Each structure is given as a SMILES string. Values after ≈ are worked out from the molar mass of the structure shown. Read-outs that look alike come from different tables or passages of the source.

Series [1] in a line: Studies using 14C labelled benzyl alcohol: dissipation from injection site and removal from body. It is filed as in vivo.
In series [2] the test system is uterotrophic action of oestradiol. The following applies: monkeys; cited from earlier work.
Series [3] in a line: Aqueous solubility of fulvestrant, estimate from a water/solvent mixture. Type of series: physicochemical. The following applies: estimate from a water/solvent mixture solute.
The conditions of series [4]: in vivo; cited from earlier work.
For series [5], the system named is uterotrophic action of oestradiol. The conditions noted are these: rats; cited from earlier work.
Series [6] is described as follows: Solubility of fulvestrant in oil based formulations with and without alcohols (Table 4). It is filed as physicochemical. The following applies: 25 °C, oil or lipid.
Series [7] can be described thus: Effect of benzyl benzoate on fulvestrant solubility in castor oil at 25°C (Table 3). Type of series: physicochemical.
The subject of a further series is hypothalamic ER. The following applies: in vivo; cited from earlier work.
Series [8] relates to uterotrophic action of oestradiol. The following applies: mice; cited from earlier work.
The subject of series [9] is human breast cancer cells. The following applies: human breast cancer cells in vitro; cited from earlier work.
Series [10] can be described thus: Solubility of fulvestrant in different solvents at 25° C. (Table 2). It is filed as physicochemical.
Another series concerns uterus. The following applies: intact adult rats, cited from earlier work.

With `OCc1ccccc1` [benzyl alcohol], in [1], the “dissipation from the injection site” value is listed as “dissipates rapidly” and the “time to removal from the body after administration” value is at most 24 h.
For the compound `C[C@]12CC[C@@H]3c4ccc(O)cc4C[C@@H](CCCCCCCCC[S+]([O-])CCCC(F)(F)C(F)(F)F)[C@H]3[C@@H]1CC[C@@H]2O` (stereo partly drawn) [fulvestrant, 7α-[9-(4,4,5,5,5-Pentafluoropentylsulphinyl)nonyl]oestra-1,3-5(10)-triene-3,17β-diol], the “block of uterotrophic action of oestradiol” value in series [2], in [5] and in [8] was “blocks completely” each time. For the same compound, the aqueous solubility entry in [3] is on record as “around 10 ngml^−1”. Besides, in series [4], the “crossing of the blood-brain barrier” value is “does not cross the blood-brain barrier”. Also, the solubility in [6] is 70.1 mg/mL (≈ 116 mM); in series [6] (Fulvestrant Solubility, Vehicle minus alcohols, Sesame seed oil based, alcohols removed) it was 0.7 mg/mL (≈ 1.15 mM); in series [6] (Fulvestrant Solubility, Vehicle minus alcohols, Sesame seed/Castor oil (1:1) based, alcohols removed, 25° C.), 4.4 mg/mL (≈ 7.25 mM); in series [6] (Arachis oil based oil formulation, complete vehicle, Fulvestrant Solubility, Arachis oil based, ethanol [96%] (10%), benzyl alcohol (10%), benzyl benzoate (15%), oil to volume) it was 40.2 mg/mL (≈ 66.3 mM); in series [6] (Arachis oil based oil formulation, vehicle minus alcohols, Fulvestrant Solubility, Arachis oil based, alcohols removed) it was below 0.2 mg/mL; in series [6] (Castor oil based oil formulation, complete vehicle, Fulvestrant Solubility, Castor oil based, ethanol [96%] (10%), benzyl alcohol (10%), benzyl benzoate (15%), oil to volume), 81.2 mg/mL (≈ 134 mM). The solubility in series [6] (Castor oil based oil formulation, vehicle minus alcohols, Fulvestrant Solubility, Castor oil based, alcohols removed) is 12.6 mg/mL (≈ 20.8 mM); in series [6] (Miglyol 812-N based oil formulation, complete vehicle, Fulvestrant Solubility, Miglyol 812-N based, ethanol [96%] (10%), benzyl alcohol (10%), benzyl benzoate (15%), oil to volume), 86.8 mg/mL (≈ 143 mM); in series [6] (Miglyol 812-N based oil formulation, vehicle minus alcohols, Fulvestrant Solubility, Miglyol 812-N based, alcohols removed), 1.7 mg/mL (≈ 2.8 mM); in [6] (Sesame seed oil based oil formulation, complete vehicle, Fulvestrant Solubility, Sesame seed oil based, ethanol [96%] (10%), benzyl alcohol (10%), benzyl benzoate (15%), oil to volume) it was 45.7 mg/mL (≈ 75.3 mM); in series [10] (solvent Arachis oil, 25° C.), 0.45 mgml^−1; in series [10] (solvent Benzyl Alcohol, 25° C.), above 200 mgml^−1. The solubility in series [10] (solvent Benzyl benzoate, 25° C.) is 6.15 mgml^−1; in series [10] (solvent Castor oil, 25° C.), 20 mgml^−1; in [10] (solvent Ethanol, 25° C.), above 200 mgml^−1; in series [10] (solvent Ethyl oleate, 25° C.) it was 1.25 mgml^−1; in series [10] (solvent Isopropyl myristate, 25° C.), 0.80 mgml^−1; in [10] (solvent Miglyol 810, 25° C.) it was 3.06 mgml^−1. In addition, the solubility in [10] (solvent Miglyol 812, 25° C.) worked out at 2.72 mgml^−1; in [10] (solvent Sesame oil, 25° C.), 0.58 mgml^−1; in series [10] (solvent Span 85 (surfactant), 25° C.), 3.79 mgml^−1; in [10] (solvent Water, 25° C., read-out: SOLUBILITY) it was 0.001 mg/mL (≈ 0.00165 mM). For the same compound, the “Fulvestrant Solubility” value worked out at 36 mgml^−1 in [7] (% w/v: ethanol (96%) 5, benzyl alcohol 5, benzyl benzoate 15, castor oil to 100); 27 mgml^−1 in series [7] (% w/v: ethanol (96%) 5, benzyl alcohol 5, no benzyl benzoate, castor oil to 100); 54 mgml^−1 in [7] (% w/v: ethanol (96%) 10, benzyl alcohol 5, benzyl benzoate 15, castor oil to 100); 46 mgml^−1 in series [7] (% w/v: ethanol (96%) 10, benzyl alcohol 5, no benzyl benzoate, castor oil to 100); 65 mgml^−1 in series [7] (% w/v: ethanol (96%) 10, benzyl alcohol 10, benzyl benzoate 15, castor oil to 100); 45 mgml^−1 in series [7] (% w/v: ethanol (96%) 10, benzyl alcohol 10, no benzyl benzoate, castor oil to 100). Also, the “Fulvestrant Solubility” value in series [7] (% w/v: ethanol (96%) 15, benzyl alcohol 15, benzyl benzoate 15, castor oil to 100) turned out to be 102 mgml^−1; in series [7] (% w/v: ethanol (96%) 15, benzyl alcohol 15, no benzyl benzoate, castor oil to 100), 76 mgml^−1. Also, the “block of hypothalamic ER” value in the series on hypothalamic ER was “does not block”. The “block of growth stimulatory action of oestradiol” value in series [9] is listed as “completely blocks”. Also, the “potency and effectiveness compared with tamoxifen” value in series [9] is “more potent and more effective than tamoxifen”. Further, in the series on uterus (at the dose achieving maximum regression of the uterus), the “effect on bone density and gonadotrophin secretion” value is on record as “does not adversely affect bone density or lead to increased gonadotrophin secretion”. For the same compound, the “regression of the uterus” value in the series on uterus is on record as “maximum regression of the uterus”.
